Test results reported in ChEMBL document CHEMBL1123484 (J Med Chem, 1986).

Assays:
[1] = molecular target: T1, Folylpolyglutamate synthase, mitochondrial (Mus musculus) (UniProt P48760); experiment: Compound (500 uM folate
T1 sequence (whole entry): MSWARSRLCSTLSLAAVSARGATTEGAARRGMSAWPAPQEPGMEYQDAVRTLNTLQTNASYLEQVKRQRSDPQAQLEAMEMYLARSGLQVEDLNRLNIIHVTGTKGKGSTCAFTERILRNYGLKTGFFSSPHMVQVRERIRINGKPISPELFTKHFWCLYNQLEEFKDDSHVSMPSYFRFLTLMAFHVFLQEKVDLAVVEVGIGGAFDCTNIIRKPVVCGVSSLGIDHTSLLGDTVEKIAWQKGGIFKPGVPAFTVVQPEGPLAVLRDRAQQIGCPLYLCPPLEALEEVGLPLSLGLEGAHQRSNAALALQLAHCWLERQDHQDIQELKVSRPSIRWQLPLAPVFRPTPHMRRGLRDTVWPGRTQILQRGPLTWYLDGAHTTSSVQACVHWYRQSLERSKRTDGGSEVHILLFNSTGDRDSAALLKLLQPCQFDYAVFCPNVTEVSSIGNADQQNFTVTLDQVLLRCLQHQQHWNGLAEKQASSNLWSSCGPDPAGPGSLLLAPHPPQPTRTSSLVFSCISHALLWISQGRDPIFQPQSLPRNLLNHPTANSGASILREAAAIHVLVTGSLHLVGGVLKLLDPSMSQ

[2] = tested on: L1210 ( R81); experiment: Compound was tested for its ability to inhibit growth of L1210/R81 cells; assay type: functional, cell-based; details: Mus musculus
[3] = tested on: L1210; experiment: Compound was tested for its ability to inhibit growth of L1210 mouse leukemia cells; assay type: functional, cell-based
[4] = molecular target: T2, Dihydrofolate reductase (Mus musculus, UniProt P00375); experiment: biochemical
T2 sequence (P00375 whole entry): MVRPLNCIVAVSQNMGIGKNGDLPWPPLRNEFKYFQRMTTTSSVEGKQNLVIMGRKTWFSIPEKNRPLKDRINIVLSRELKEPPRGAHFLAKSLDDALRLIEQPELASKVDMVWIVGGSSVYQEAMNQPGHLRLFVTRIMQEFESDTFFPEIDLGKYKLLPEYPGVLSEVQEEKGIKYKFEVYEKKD
Description: Compound was tested for its ability to inhibit purified dihydrofolate reductase(DHFR) from L1210/R81 cells

[5] = molecular target: T3, Folylpolyglutamate synthase, mitochondrial (Mus musculus, UniProt P48760); experiment: Compound was tested for its ability to inhibit Folyl-polyglutamate synthase from mouse liver
T3 sequence (P48760 whole entry): T1 sequence (whole entry)

Structure (SMILES)	inhibition [1]	IC50 [2]	IC50 [3]	IC50 [4]	Ki [5]
Nc1nc(N)c2nc(CNc3ccc(C(=O)N[C@@H](CCC(=O)O)C(=O)O)cc3)cnc2n1 [AMINOPTERIN]	–	84000 nM	–	–	–
NCCCC(NC(=O)c1ccc(NCc2cnc3nc(N)nc(N)c3n2)cc1)C(=O)O (stereo unspecified)	–	32000 nM	1300 nM	–	150 nM
CN(Cc1cnc2nc(N)nc(N)c2n1)c1ccc(C(=O)NC(CCCN)C(=O)O)cc1 (stereo unspecified)	–	86000 nM	1300 nM	160 nM	20400 nM
CN(Cc1cnc2nc(N)nc(N)c2n1)c1ccc(C(=O)NC(CCCCN)C(=O)O)cc1 (stereo unspecified)	< 10%	220000 nM	400 nM	65 nM	–

Further compounds by falling IC50 [2], results first:

inhibition [1]	IC50 [2]	IC50 [3]	IC50 [4]	Ki [5]	Structure (SMILES)
< 10%	405000 nM	440 nM	180 nM	–	CN(Cc1cnc2nc(N)nc(N)c2n1)c1ccc(C(=O)NC(CN)C(=O)O)cc1 (stereo unspecified)
< 10%	290000 nM	2420 nM	120 nM	–	CN(Cc1cnc2nc(N)nc(N)c2n1)c1ccc(C(=O)NC(CCN)C(=O)O)cc1 (stereo unspecified)
–	220000 nM	–	–	–	CN(Cc1cnc2nc(N)nc(N)c2n1)c1ccc(C(=O)N[C@@H](CCC(=O)O)C(=O)O)cc1 [METHOTREXATE]
